According to the OPERA property sets (Mansouri et al. 2018):

Row | Structure (SMILES) | logP
1 | O=C(Nc1ccc2nn(C3CCCCC3)nc2c1)C(Cl)Cl | 3.87
2 | O=C(Nc1ccc2nn(C3CCCCC3)nc2c1)c1ccccc1 | 4.45
3 | COc1cc(C(=O)Nc2ccc3nn(C4CCCCC4)nc3c2)cc(OC)c1OC | 4.45
4 | Cn1nc2ccc(NC(=O)c3ccccc3)cc2n1 | 2.44
5 | Cn1nc2ccc(NC(=O)c3ccc([N+](=O)[O-])cc3)cc2n1 | 2.53
6 | O=C(Nc1ccc2nn(C3CCCCC3)nc2c1)c1ccc([N+](=O)[O-])cc1 | 4.57
7 | COc1ccc(C(=O)Nc2ccc3nn(C4CCCC4)nc3c2)cc1 | 4.03
8 | COc1cc(C(=O)Nc2ccc3nn(C)nc3c2)cc(OC)c1OC | 2.38
9 | O=C(Nc1ccc2nn(C3CCCCC3)nc2c1)c1ccc(Cl)c(Cl)c1 | 5.85
10 | Cn1nc2ccc(NC(=O)CCl)cc2n1 | 1.22
11 | Cn1nc2ccc(NC(=O)c3ccc(Cl)cc3)cc2n1 | 3.13
